Data set [1] deals with T1, purified recombinant human PARP (Homo sapiens, UniProt P09874).
T1 construct: purchased Trevigen (Gaithersburg, Md.)
Put plainly: PARP enzyme assay using purified recombinant human PARP, [3H]NAD incorporation. The format is biochemical. As to conditions: 25° C., 15 minutes, 3.0 micromolar [3H]NAD, read-out: Approximate IC50's. The procedure:
The reaction is initiated by incubating the mixture at 25° C. After 15 minutes' incubation, the reaction is terminated by adding 500 microliters of ice cold 20% (w/v) trichloroacetic acid. The precipitate formed is transferred onto a glass fiber filter (Packard Unifilter-GF/B) and washed three times with ethanol. After the filter is dried, the radioactivity is determined by scintillation counting.

The subject of data set [2] is ischemia and reperfusion of the heart. As to conditions: rabbits, cited from earlier work.
Data set [3] deals with PARP. The following applies: read-out: IC50 for inhibiting PARP; reported by Suto et al.; cited from earlier work.
Data set [4] relates to cell viability, glucose metabolism, and DNA synthesis. As to conditions: Milam et al., Science 1984; cited from earlier work.

SMILES strings stand for the structures. Where two headings read alike, the source gives them in different places.

T1 sequence (P09874 whole entry): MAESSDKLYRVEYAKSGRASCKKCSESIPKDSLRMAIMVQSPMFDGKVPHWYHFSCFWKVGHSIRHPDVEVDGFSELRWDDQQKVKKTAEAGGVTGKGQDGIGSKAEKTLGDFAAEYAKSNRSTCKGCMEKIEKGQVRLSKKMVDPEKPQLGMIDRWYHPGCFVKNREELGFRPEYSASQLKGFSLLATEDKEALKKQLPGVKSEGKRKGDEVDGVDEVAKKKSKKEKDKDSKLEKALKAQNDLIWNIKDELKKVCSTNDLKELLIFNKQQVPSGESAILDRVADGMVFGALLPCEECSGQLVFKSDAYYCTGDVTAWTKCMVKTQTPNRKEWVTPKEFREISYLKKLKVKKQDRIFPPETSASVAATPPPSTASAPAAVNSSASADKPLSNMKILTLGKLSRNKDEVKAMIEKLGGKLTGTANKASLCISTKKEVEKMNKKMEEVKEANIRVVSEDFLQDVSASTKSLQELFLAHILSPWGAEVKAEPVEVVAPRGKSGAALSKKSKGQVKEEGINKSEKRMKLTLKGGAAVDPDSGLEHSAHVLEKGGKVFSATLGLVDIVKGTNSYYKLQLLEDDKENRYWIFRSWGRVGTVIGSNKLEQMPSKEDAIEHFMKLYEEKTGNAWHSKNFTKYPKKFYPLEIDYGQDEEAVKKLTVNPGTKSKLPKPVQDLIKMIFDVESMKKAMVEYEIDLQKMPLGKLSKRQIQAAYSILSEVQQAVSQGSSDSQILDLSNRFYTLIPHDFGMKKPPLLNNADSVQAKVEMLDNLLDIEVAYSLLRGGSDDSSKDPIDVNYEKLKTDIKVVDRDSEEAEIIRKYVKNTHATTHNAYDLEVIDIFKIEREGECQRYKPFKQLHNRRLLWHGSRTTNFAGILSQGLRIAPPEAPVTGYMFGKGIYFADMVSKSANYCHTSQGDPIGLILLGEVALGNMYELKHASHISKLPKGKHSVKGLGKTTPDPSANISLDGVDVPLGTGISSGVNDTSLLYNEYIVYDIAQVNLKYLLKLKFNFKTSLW

In the case of `O=c1[nH]cc([N+](=O)[O-])c2ccccc12`, the IC50 (as a rule, the point on the concentration scale where inhibition reaches its midpoint) in data set [1] turned out to be 5 µM.
For the molecule `O=c1[nH]c(-c2ccccc2)cc2ccccc12`, the IC50 in data set [1] (unit μm [sic]) stood at 30 µM.
As to `O=C(O)c1c[nH]c(=O)c2ccccc12`, in data set [1], the IC50 is 10 µM.
In the case of `O=c1[nH]ccc2c([N+](=O)[O-])cccc12`, the IC50 in data set [1] was 10 µM.
`COC(=O)c1c[nH]c(=O)c2ccccc12`: in data set [1], the IC50 is 0.8 µM.
`Oc1cccc2c(O)nccc12` [1,5-dihydroxyisoquinoline]: in data set [2] (single injection 1 mg/kg), the “reduction in infarct size” value is given as 38-48%.
Turning to `O=C1NCCc2c(OCCCCN3CCCCC3)cccc21` [3,4-dihydro-5-[4-(1-piperidinyl)butoxy]1(2H)-isoquinolinone], the IC50 in data set [3] is 0.04 µM.
Take `NC(=O)c1cccc(N)c1` [3-aminobenzamide]: the “reduction in infarct size in the heart” value in data set [2] (single injection 10 mg/kg, one minute before occlusion or one minute before reperfusion) was 32-42%. Besides, the “side effects on other metabolic processes” value in data set [4] is “affect cell viability, glucose metabolism, and DNA synthesis”.
As to `NC(=O)c1ccccc1` [benzamide], in data set [4], the “side effects on other metabolic processes” value was “affect cell viability, glucose metabolism, and DNA synthesis”.

These data come from US6346536B1, “Poly(ADP-ribose) polymerase inhibitors and method for treating neural or cardiovascular tissue damage using the same” (Guilford Pharmaceuticals Inc., priority 1997, dated 2002).
